Values joined by “and” are separate entries in the source; they are usually repeats but may differ in a detail not shown here. Equal entries are not always repeated.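 A five-concentration, 48-hour dose response in 96-well plates underlies each endpoint, interpolated linearly between surrounding concentrations. At the GI50, growth is halved. TGI: total growth inhibition.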
What was measured:
Assay in all cases: inhibition of tumour cell growth, NCI panel, 48 h
[1] = system: LOX IMVI melanoma
[2] = system: MDA-MB-435
[3] = system: OVCAR-3 ovarian
[4] = system: NCI-H460 lung
[5] = system: NCI-H226 lung
[6] = system: KM12 colon
[7] = system: T-47D breast
[8] = system: BT-549 breast
[9] = system: UACC-257 melanoma
[10] = system: TK-10 renal
[11] = system: HS 578T breast
[12] = system: UACC-62 melanoma
[13] = system: SR leukemia
[14] = system: CCRF-CEM leukemia
[15] = system: DU-145 prostate
[16] = system: OVCAR-4 ovarian
[17] = system: HT29 colon
[18] = system: UO-31 renal
[19] = system: 786-0 renal
[20] = system: HL-60(TB) leukemia
[21] = system: MOLT-4 leukemia
[22] = system: ACHN renal
[23] = system: SK-MEL-28 melanoma
[24] = system: RPMI-8226 leukemia
[25] = system: SK-MEL-5 melanoma
[26] = system: SW-620 colon
[27] = system: SNB-75 CNS
[28] = system: PC-3 prostate
[29] = system: SN12C renal
[30] = system: A549 NSCLC
[31] = system: NCI-H23 lung
[32] = system: HCC-2998 colon
[33] = system: CAKI-1 renal
[34] = system: NCI-H522 lung
[35] = system: M14 melanoma
[36] = system: MDA-MB-231 breast
[37] = system: SNB-19 CNS
[38] = system: HCT-116 colon
[39] = system: U251 CNS
[40] = system: OVCAR-5 ovarian
[41] = system: HOP-62 NSCLC
[42] = system: HOP-92 NSCLC
[43] = system: OVCAR-8 ovarian
[44] = system: SK-MEL-2 melanoma
[45] = system: SK-OV-3 ovarian
[46] = system: COLO 205 colon
[47] = system: SF-268 CNS
[48] = system: MCF7 breast
[49] = system: EKVX NSCLC
[50] = system: IGROV1 ovarian
[51] = system: SF-295 CNS
[52] = system: SF-539 CNS
[53] = system: RXF 393 renal
[54] = system: K-562 leukemia
[55] = system: A498 renal
[56] = system: HCT-15 colon
[57] = system: MALME-3M melanoma
[58] = system: NCI/ADR-RES ovarian

O=C1Nc2ccc(I)cc2/C1=C/c1cc(Br)c(O)c(Br)c1
GI50 [1]: > 17.5 µM and 16.2 µM | TGI [1]: > 79 µM | GI50 [2]: 15 µM and 13.2 µM | TGI [2]: > 100 µM | GI50 [3]: > 12.5 µM and 16.7 µM | TGI [3]: > 20.6 µM and 36.9 µM | GI50 [4]: > 17.4 µM and 17 µM | TGI [4]: > 25 µM and 44.1 µM | GI50 [5]: > 25 µM and 27.8 µM | TGI [5]: > 25 µM and 81.2 µM | GI50 [6]: > 15.9 µM and 12 µM | TGI [6]: > 25 µM and 28.7 µM | GI50 [7]: > 18.5 µM and 15.4 µM | TGI [7]: > 82.8 µM | GI50 [8]: > 17.9 µM and 8.07 µM | TGI [8]: > 25 µM and 32.7 µM | GI50 [9]: > 20.7 µM and 16.5 µM | TGI [9]: > 25 µM and 69.2 µM | GI50 [10]: > 25 µM and 31.1 µM | TGI [10]: > 92.3 µM | GI50 [11]: > 17.9 µM and 21.3 µM | TGI [11]: > 80.4 µM | GI50 [12]: 11.5 µM and 8.43 µM | TGI [12]: > 25 µM and 29.6 µM | GI50 [13]: > 49.5 µM | TGI [13]: 98.9 µM | GI50 [14]: > 18.5 µM and 6.24 µM | TGI [14]: > 25 µM and 51.3 µM | GI50 [15]: > 23.8 µM and 25 µM | TGI [15]: > 100 µM | GI50 [16]: 24.8 µM and 23.3 µM | TGI [16]: > 100 µM | GI50 [17]: > 20.6 µM and 13.5 µM | TGI [17]: > 25 µM and 52.5 µM | GI50 [18]: > 16.4 µM and 18.1 µM | TGI [18]: > 25 µM and 58.9 µM | GI50 [19]: > 24.1 µM and 18.2 µM | TGI [19]: > 25 µM and 45.5 µM | GI50 [20]: > 47.8 µM | TGI [20]: > 100 µM | GI50 [21]: > 60.1 µM | TGI [21]: > 100 µM | GI50 [22]: > 19.8 µM and 21.8 µM | TGI [22]: > 85.8 µM | GI50 [23]: 14.4 µM and 9.72 µM | TGI [23]: > 72.2 µM | GI50 [24]: 15.3 µM and 6.81 µM | TGI [24]: > 100 µM | GI50 [25]: 13 µM and 10.5 µM | TGI [25]: > 25 µM and 23.6 µM | GI50 [26]: 24.8 µM and 22 µM | TGI [26]: > 25 µM and 51.1 µM | GI50 [27]: > 25 µM and 22.2 µM | TGI [27]: > 90.3 µM | GI50 [28]: > 17.7 µM and 23.3 µM | TGI [28]: > 74.7 µM | GI50 [29]: > 25 µM and 25.9 µM | TGI [29]: > 80.8 µM | GI50 [30]: > 24.2 µM and 22.7 µM | TGI [30]: > 25 µM and 97 µM | GI50 [31]: > 17 µM and 18.1 µM | TGI [31]: > 25 µM and 55 µM | GI50 [32]: 24.5 µM and 16.3 µM | TGI [32]: > 25 µM and 33.6 µM | GI50 [33]: > 15.9 µM and 14.9 µM | TGI [33]: > 25 µM and 72 µM | GI50 [34]: 16.2 µM and 16.5 µM | TGI [34]: > 25 µM and 42.3 µM | GI50 [35]: 10.8 µM and 5.03 µM | TGI [35]: > 25 µM and 72.1 µM | GI50 [36]: > 20.4 µM and 16.1 µM | TGI [36]: > 25 µM and 44.2 µM | GI50 [37]: > 21.6 µM and 31.1 µM | TGI [37]: > 94.3 µM | GI50 [38]: > 17.2 µM and 15.2 µM | TGI [38]: > 25 µM and 32.8 µM | GI50 [39]: > 24.1 µM and 15.1 µM | TGI [39]: > 25 µM and 36.3 µM | GI50 [40]: > 25 µM and 21.5 µM | TGI [40]: > 25 µM and 51.7 µM | GI50 [41]: > 25 µM and 21.9 µM | TGI [41]: > 25 µM and 46.9 µM | GI50 [42]: 15.6 µM | TGI [42]: 54.7 µM | GI50 [43]: > 25 µM and 23.8 µM | TGI [43]: > 96.5 µM | GI50 [44]: 19.6 µM and 14.7 µM | TGI [44]: > 25 µM and 37.5 µM | GI50 [45]: > 25 µM and 17.9 µM | TGI [45]: > 25 µM and 47.5 µM | GI50 [46]: 24.3 µM and 18.3 µM | TGI [46]: > 25 µM and 71.4 µM | GI50 [47]: > 21.9 µM and 18.2 µM | TGI [47]: > 25 µM and 68.8 µM | GI50 [48]: > 20.1 µM and 15.4 µM | TGI [48]: > 82.2 µM | GI50 [49]: > 17.5 µM and 13.8 µM | TGI [49]: > 84.1 µM | GI50 [50]: > 25 µM and 27.8 µM | TGI [50]: > 75.5 µM | GI50 [51]: > 15.9 µM and 17.2 µM | TGI [51]: > 100 µM | GI50 [52]: > 20.2 µM and 14.1 µM | TGI [52]: > 25 µM and 43.8 µM | GI50 [53]: > 16.6 µM and 12 µM | TGI [53]: > 25 µM and 28.3 µM | GI50 [54]: > 51.9 µM | TGI [54]: > 100 µM | GI50 [55]: > 16.3 µM and 20.3 µM | TGI [55]: > 25 µM and 41.9 µM | GI50 [56]: > 16 µM and 17.2 µM | TGI [56]: > 65.8 µM | GI50 [57]: 5.9 µM and 4.62 µM | TGI [57]: 22.2 µM and > 64.5 µM | GI50 [58]: > 21.8 µM and 28.2 µM | TGI [58]: > 100 µM
